Measurements reported in patent publication US9586994B2, “CD44V6-derived peptides for treating breast cancer” (KARLSRUHER INSTITUT FÜR TECHNOLOGIE, priority 2012, dated 2017).

Key:
CD44v6 [1] = biological target: T1, CD44v6 (Homo sapiens, UniProt P16070); assay: Peptide blocking of EGF/TGFα-induced Erk phosphorylation in MCF7 cells (Western blot); type: cell-based; conditions: peptide 100 ng/ml; for EGF-induced activation of the ErbB receptors (Erk phosphorylation): MCF7, serum-starved, EGF 20 ng/ml
T1 construct: endogenous in cells; host or cells: MCF7; MCF10A
Protocol: (§1) 3×10^5 were seeded per well of a 6-well plate and serum-starved for 24 hours. Afterwards the medium inside of each well was reduced to 1 ml and the respective peptide (v6 (both peptides of SEQ ID No.: 2 and 6 were tested), or ctrl peptide) was added at a concentration of 100 ng/ml. The cells then were incubated together with the peptide at 37° C. for 5 mins. Ligand concentration for all peptide blocking experiments was 20 ng/ml.
(§2) To assay protein expression via Western blot cells were washed 1× with PBS and afterwards lysed in 2×Laemmli sample buffer (160 mM Tris-HCl pH 6.8, 4% SDS, 16% glycerol, 0.1M DTT, 0.01% bromphenol blue). The sample was sheared through a 26 gauge needle. In succession the lysates were boiled for 5 mins at 99° C. in order to denature the proteins in the sample and then spun down at 10 000 rmp for 1 min Eventually the samples were loaded onto an SDS-PAGE gel.
(§3) To test whether CD44v6 acts as a co-receptor in MCF7 or MCF10A cells, a peptide blocking experiment using peptides of SEQ ID NO: 6 was conducted. The cells were serum-starved for 24 h and then pre-incubated with a v6 peptide or an unspecific control peptide. Then, the cells were induced with EGF or HGF as a control. As a read-out for ErbB-activation, the phosphorylation of the Erk-kinase was used.

L3.6pl cells = assay: Human orthotopic pancreatic cancer model, L3.6pl cells in nude mice, treatment from day 7; type: in vivo, mouse; conditions: nude mice
Procedure, shortened: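 L3.6pl pancreatic carcinoma cells (passage 24-26) were injected orthotopically into the pancreas of male nude mice. From day 7, groups of 15 received i.p. human v6 peptide or rat control peptide (20 μg, 14mer or 5mer), three times weekly for 21 days. Animals were killed two days after the last dose; tumors were analyzed by P-Met, Met, CD31 and caspase immunostaining.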

CD44v6 [2] = assay: HGF-induced activation of Met and ERK in L3.6pl cells (Western blot); type: cell-based, human; conditions: peptide before induction with 10 ng/ml HGF
Procedure, shortened: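 L3.6pl human pancreatic carcinoma cells serum-starved 24 h, pretreated 10 min at 37° C with CD44v6 or control peptide (100 ng/mL), then stimulated with HGF (10 ng/mL) 5 min. Phospho-Met and phospho-ERK detected by western blot with total Met/ERK reprobe; bands quantified densitometrically.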

CD44v6 [3] = biological target: T1, CD44v6; assay: Peptide blocking of EGF-induced Erk phosphorylation in MCF10A cells (Western blot); type: cell-based; conditions: MCF10 cells, serum-starved; peptide 100 ng/ml; EGF 20 ng/ml
Protocol: as §1, §2, §3

[4] = orthotopic L3.6pl, 20 μg i.p. three times per week

T1 sequence (P16070 21-742): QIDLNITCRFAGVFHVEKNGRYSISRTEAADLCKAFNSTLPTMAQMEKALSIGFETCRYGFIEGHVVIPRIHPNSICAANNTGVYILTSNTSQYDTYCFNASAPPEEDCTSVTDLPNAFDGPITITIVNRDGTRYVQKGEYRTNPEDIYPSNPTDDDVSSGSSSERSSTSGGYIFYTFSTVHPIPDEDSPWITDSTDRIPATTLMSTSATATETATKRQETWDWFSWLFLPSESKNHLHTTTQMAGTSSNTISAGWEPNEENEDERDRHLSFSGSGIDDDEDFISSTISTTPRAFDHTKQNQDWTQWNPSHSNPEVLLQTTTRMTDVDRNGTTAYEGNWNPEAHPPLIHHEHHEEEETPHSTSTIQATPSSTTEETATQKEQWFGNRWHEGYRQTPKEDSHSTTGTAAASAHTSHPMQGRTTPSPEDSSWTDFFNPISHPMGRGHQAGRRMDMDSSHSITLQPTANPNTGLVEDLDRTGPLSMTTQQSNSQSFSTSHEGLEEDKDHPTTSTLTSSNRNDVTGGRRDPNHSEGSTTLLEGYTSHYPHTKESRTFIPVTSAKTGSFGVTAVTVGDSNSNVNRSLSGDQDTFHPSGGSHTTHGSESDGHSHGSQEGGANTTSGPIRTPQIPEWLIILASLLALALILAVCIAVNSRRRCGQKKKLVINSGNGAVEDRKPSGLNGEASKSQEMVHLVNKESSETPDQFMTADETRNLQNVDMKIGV

EGF-induced activation of the ErbB receptors (Erk phosphorylation) (CD44v6 [1]): blocking of Erk phosphorylation | EGF-induced activation of the ErbB receptors (Erk phosphorylation) (CD44v6 [1]; listed as CD44v6-specific peptide): could be blocked | Erk phosphorylation upon TGFα induction (CD44v6 [1]; MCF7, TGFα 20 ng/ml): not upon TGFα induction | EGF-induced activation of the ErbB receptors (Erk phosphorylation) (CD44v6 [3]): could be blocked
Sequence: KEQWFGNRWHEGYR [SEQ ID NO: 6, human CD44v6 14mer peptide]
Tumor angiogenesis (CD31 staining, vessel number and vessel size) (L3.6pl cells; orthotopic L3.6pl tumors): decreased angiogenesis as exemplified by a reduced vessel number and vessel size | Metastasis formation (liver) (L3.6pl cells; [4]): completely inhibited metastasis formation within the liver | Outgrowth of the primary tumor in the pancreas (L3.6pl cells; [4]): strongly repressed | Met activation in the tumor (phospho-Met immunofluorescence) (L3.6pl cells; orthotopic L3.6pl, 20 μg i.p. three times per week for three weeks): completely repressed Met activation | HGF-induced phosphorylation/activation of ERK (CD44v6 [2]): inhibited | HGF-induced phosphorylation/activation of Met (CD44v6 [2]): inhibited | HGF-induced phosphorylation/activation of ERK (CD44v6 [2]; listed as CD44v6 peptide): able to prevent activation | HGF-induced phosphorylation/activation of Met (CD44v6 [2]; listed as CD44v6 peptide): able to prevent activation
